Test results: publication PMC12615753, “Glutathione as a taste modulator: molecular mechanisms of interaction with umami and sweet taste receptors” (Food Chemistry: Molecular Sciences, 2025)

Biological target: T1, hTAS1R1 R277A/rTAS1R3 (Homo sapiens, UniProt Q7RTX1, R277A)
T1 construct: UniProtKB number Q7RTX1–1); expressed in transfected cells; host or cells: HEK293T/17 (ATCC CRL-11268)
T1 sequence (Q7RTX1 21-841 R277A): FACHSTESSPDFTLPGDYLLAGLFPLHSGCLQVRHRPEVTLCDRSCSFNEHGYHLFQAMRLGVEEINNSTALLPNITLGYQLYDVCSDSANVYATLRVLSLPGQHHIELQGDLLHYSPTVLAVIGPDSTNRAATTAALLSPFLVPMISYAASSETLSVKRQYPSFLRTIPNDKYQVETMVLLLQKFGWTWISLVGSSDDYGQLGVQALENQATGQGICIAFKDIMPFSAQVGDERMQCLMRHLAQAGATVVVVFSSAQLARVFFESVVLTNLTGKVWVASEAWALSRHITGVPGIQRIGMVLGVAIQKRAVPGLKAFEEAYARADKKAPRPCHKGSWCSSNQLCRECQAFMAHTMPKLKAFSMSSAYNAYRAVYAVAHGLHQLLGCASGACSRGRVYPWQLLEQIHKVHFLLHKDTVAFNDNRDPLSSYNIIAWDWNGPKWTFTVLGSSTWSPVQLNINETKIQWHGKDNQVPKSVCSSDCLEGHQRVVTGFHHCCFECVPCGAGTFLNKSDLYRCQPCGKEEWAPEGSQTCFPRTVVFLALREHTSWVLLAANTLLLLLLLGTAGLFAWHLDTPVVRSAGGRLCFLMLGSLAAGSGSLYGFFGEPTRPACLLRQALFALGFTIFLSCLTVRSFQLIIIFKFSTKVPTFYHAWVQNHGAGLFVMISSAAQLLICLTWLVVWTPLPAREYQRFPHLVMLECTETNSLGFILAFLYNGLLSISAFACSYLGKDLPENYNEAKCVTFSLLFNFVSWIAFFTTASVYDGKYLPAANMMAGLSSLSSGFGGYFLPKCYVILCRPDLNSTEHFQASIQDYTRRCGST
T1 sequence (Q923K1 21-858 partner): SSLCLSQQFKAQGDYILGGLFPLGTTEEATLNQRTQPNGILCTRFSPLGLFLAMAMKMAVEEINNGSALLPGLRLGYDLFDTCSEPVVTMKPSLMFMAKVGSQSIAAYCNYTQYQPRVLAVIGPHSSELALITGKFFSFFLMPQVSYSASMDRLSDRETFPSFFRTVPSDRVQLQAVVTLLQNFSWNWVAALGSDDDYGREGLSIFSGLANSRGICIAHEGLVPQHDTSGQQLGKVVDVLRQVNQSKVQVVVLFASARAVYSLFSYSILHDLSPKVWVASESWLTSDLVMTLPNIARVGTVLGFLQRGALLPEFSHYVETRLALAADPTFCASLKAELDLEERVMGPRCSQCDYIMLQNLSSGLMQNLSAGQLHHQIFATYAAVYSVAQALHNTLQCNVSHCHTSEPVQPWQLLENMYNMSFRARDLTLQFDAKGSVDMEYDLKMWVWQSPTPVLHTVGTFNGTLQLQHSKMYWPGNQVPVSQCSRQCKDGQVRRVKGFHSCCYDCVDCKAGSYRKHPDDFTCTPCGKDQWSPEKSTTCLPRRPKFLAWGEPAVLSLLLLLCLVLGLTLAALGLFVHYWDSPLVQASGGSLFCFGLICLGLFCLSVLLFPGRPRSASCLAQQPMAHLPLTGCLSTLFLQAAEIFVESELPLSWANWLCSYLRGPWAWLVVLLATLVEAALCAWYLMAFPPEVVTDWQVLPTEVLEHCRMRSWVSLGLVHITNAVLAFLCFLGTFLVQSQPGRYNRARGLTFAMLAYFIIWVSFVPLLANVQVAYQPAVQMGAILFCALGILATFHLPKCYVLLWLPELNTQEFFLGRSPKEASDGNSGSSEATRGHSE
Experiment: Calcium assay, hTAS1R1 mutant co-expressed with rTAS1R3
Format: cell-based, rat
Description: Chimeric Gα proteins, such as Gα16Gust44, Gα16Gi3 or Gα15i2, are widely used in the functional expression of TAS1R receptors ([Backes et al., 2015]; [Suess et al., 2015]; [Toda et al., 2021], [Toda et al., 2013], [Toda et al., 2018]; [Zhang et al., 2008]). Chimeric Gα15i2 (([Toda et al., 2013]), Supplementary data) was generated by replacing the last five residues of the C-terminal tail of rat Gα15i2 (EINLL) (UniProt number G3V6N8; https://www.uniprot.org/uniprot/) with the counterpart sequence from human GNAI2 (DCGLF) (UniProt number P04899-1) and cloning into the pcDNA3.1/Hygro vector (Invitrogen, Thermo Fisher Scientific, Illkirch, France) between the HindIII and NotI restriction sites, resulting in the plasmid pcDNA3.1-Gα15i2. Chimeric Gα16Gust44 construct have already been reported ([Raliou et al., 2011]). Briefly, Gα16Gust44 was generated by replacing the C-terminal of Gα16 with the C-terminal 44 residues of gustducin. As previously described, hTAS1R1 was amplified from human fungiform papillae cDNA and cloned and inserted into pcDNA3 (Invitrogen), generating pcDNA3-TAS1R1-WT (wild-type) ([Raliou et al., 2011]). […] The cDNA coding region of rTAS1R3 was synthesized with optimized-codon usage for human expression (Genewiz) and was cloned and inserted into the mammalian pcDNA4/myc-HisA (Invitrogen) expression vector between the EcoRI and NotI restriction sites, resulting in the plasmid pcDNA4-rTAS1R3. […] The sequence integrity of all the plasmid constructs was verified via automated DNA sequencing (Genewiz).
The hTAS1R1 mutants were co-expressed with the rTAS1R3 subunit in HEK293 cells. […] As a control, the functionality of the mutated receptors was checked after stimulation with S807 (Fig. S8), which interacts with TAS1R1-TMD ([Zhang et al., 2008]).

Structure (SMILES) | response to the agonist alone, vs WT (R277A) | EC50 [mM] | effect of the added compound (1 mM) on the response to L-Glu (R277A) | Max ∆F/F0 (R277A, GSH) | R1 = mutant EC50/WT EC50 (R277A, GSH)
N[C@@H](CCC(=O)O)C(=O)O [L-Glu, L-glutamic acid, reference compound] | increased the amplitude |  |  |  | 
N[C@@H](CCC(=O)N[C@@H](CS)C(=O)NCC(=O)O)C(=O)O [GSH, γ-L-glutamyl-L-cysteinyl-glycine] | significantly increased the initial amplitude | 1.84 ± 0.174 | did not affect | 0.85 ± 0.02 | 0.7
